According to PMC9820444, “Design and Synthesis of Acridine-Triazole and Acridine-Thiadiazole Derivatives and Their Inhibitory Effect against Cancer Cells” (International Journal of Molecular Sciences, 2022):
Like-named read-outs stand apart in the source and are kept apart here. Marks after values point to notes of the source that are not given here.

Tests used:
[1] = tested on: human foreskin fibroblasts (HFF); test: MTT antiproliferative assay, HFF; format: cell-based; conditions: read-out: Effect against cell viability (IC50), HFF
Experimental: (§1) All newly synthesized acridinyl derivatives (4–6) were screened for their anticancer activities in comparison to the reference compounds, 5-FU and cis-platinum. Compounds 4–6 were tested for their in vitro antitumor activities against HFF, MGC-803, BEL-7404, NCI-H460, and T24 tumor cell lines, and human normal liver cells (LO2), and the results are shown in Table 1. Most of the compounds had strong selective potency against MGC-803 and T24 cancer cells. […] In the T24 cell line assay, many compounds, especially the series of compound 4, had significant activity against T24. This implies that there is a significant increase in potency after the introduction of the aroyl thiourea group. […] To our delight, most 1,2,4-triazolethiones (5) and 1,2,4-thiadiazoles (6) have low toxicity to LO2 compared with the positive control.
(§2) Test samples, including compounds 4–6 and commercial classical anticancer drugs (5-FU and cis-platinum), were screened for their anti-cancer activity against HFF human foreskin fibroblast cells, MGC-803 human gastric cancer cells, BEL-7404 human hepatocellular carcinoma cells, NCI-H460 human large cell carcinoma cells, and T24 human bladder carcinoma cells using the 3-(4,5-dimethylthiazol-2-yl)-2,5-diphenyltetrazoliumbromide (MTT) assay method cited in the literature. The initial concentration of all the test samples was 100 μg/mL, which was serially diluted in complete medium with ten-fold dilutions to give six concentrations per compound. Their cytotoxicity was determined in 96-well flat bottomed microtiter plates. All the test samples were tested in triplicate. The results were expressed as the drug concentration that inhibited cell growth by 50% as compared to the controls (IC50). The IC50 values were calculated from regression lines obtained from the percent cell growth inhibition plotted as a function of the logarithm of the dose.

[2] = tested on: bladder cancer cells (T24); test: MTT antiproliferative assay, T24; format: cell-based, human; conditions: read-out: Effect against cell viability (IC50), T24
Experimental: as §1, §2

[3] = tested on: zebrafish embryos; conditions: for MAR (malformation rate) / MOR (mortality rate): zebrafish embryos 72 hpf; for total mortality and malformation rate: zebrafish embryos, 2.0 mg.L^−1
Experimental: In this experiment, 2% DMSO was used to dissolve the target products, and the abnormal rate (MAR) and mortality rate (MOR) of zebrafish embryos (72 hpf) were used for statistics.
The zebrafish embryos were collected at 6 hpf and randomly divided into naive control (embryos maintained in distilled water), vehicle control (embryos treated with 2% DMSO), and drug groups. Stock solutions of all drugs were prepared in 2% DMSO as a solubilizing agent and diluted to three concentrations (0.5 mg/mL, 1 mg/mL, and 2 mg/mL). Each group had 20 embryos per test concentration. […] Each compound was evaluated in three independent biological experiments.

[4] = tested on: human normal liver cells (LO2); test: Cytotoxicity against normal liver cells LO2; format: cell-based; conditions: MTT, read-out: Effect against cell viability (IC50), LO2
Experimental: as §1, §2

[5] = tested on: hepatocellular carcinoma bel-7404 (BEL-7404); test: MTT antiproliferative assay, BEL-7404; format: cell-based, human; conditions: read-out: Effect against cell viability (IC50), BEL-7404
Experimental: as §1, §2

[6] = tested on: human gastric cancer cells-803 (MGC-803); test: MTT antiproliferative assay, MGC-803; format: cell-based; conditions: read-out: Effect against cell viability (IC50), MGC-803
Experimental: as §1, §2

[7] = tested on: large cell lung cancer cells (NCI-H460); test: MTT antiproliferative assay, NCI-H460; format: cell-based, human; conditions: read-out: Effect against cell viability (IC50), NCI-H460
Experimental: as §1, §2

| SMILES | IC50 [2] [µM] | IC50 [5] [µM] | IC50 ([6]; MTT) [µM] | IC50 [7] [µM] | IC50 ([2]; Homo sapiens) [µM] | IC50 ([5]; Homo sapiens) [µM] | IC50 ([6]; Homo sapiens, MGC-803, MTT) [µM] | IC50 ([7]; Homo sapiens) [µM] | melting point [°C] | IC50 [1] [µM] | MAR (malformation rate) ([3]; 1 mg/mL) | MOR (mortality rate) ([3]; 1 mg/mL) | MAR (malformation rate) ([3]; 1.5 mg/mL) | MOR (mortality rate) ([3]; 1.5 mg/mL) | MAR (malformation rate) ([3]; 2 mg/mL) | MOR (mortality rate) ([3]; 2 mg/mL) | total mortality and malformation rate [3] [%] | IC50 [4] [µM] | IC50 ([1]; Homo sapiens, Fibroblast) [µM] | IC50 ([4]; Homo sapiens) [µM] |
| --- | --- | --- | --- | --- | --- | --- | --- | --- | --- | --- | --- | --- | --- | --- | --- | --- | --- | --- | --- | --- |
| COc1ccc2nc3ccccc3c(NC(=S)NNC(=O)c3ccccc3)c2c1 [4b, 1-2′-methoxyl acridinyl-3-benzoyl thiosemicarbazides] | 29.8 ± 2.85 | 25.8 ± 2.83 | 14.5 ± 2.06 | 42.3 ± 2.15 |  |  |  |  |  | 72.6 ± 3.57 | 70% ^a | 15% ^a | 70% ^a | 15% ^a | 55% ^a | 40% ^a | 100 | 34.4 ± 2.05 |  |  |
| COc1ccc(C(=O)NNC(=S)Nc2c3ccccc3nc3ccc(OC)cc23)cc1 [4c, 1-2′-methoxyl acridinyl-3-4′-methoxy benzoyl thiosemicarbazides] | 11.2 ± 2.51 | 13.3 ± 1.37 | 21 ± 1.55 | 52.4 ± 3.67 |  |  |  |  |  | 63.7 ± 2.59 | 50% ^a | 45% ^a | 60% ^a | 25% ^a | 50% ^a | 35% ^a |  | 19.4 ± 1.69 |  |  |
| Cc1ccc2[nH]c3ccccc3c(=NC(=S)NNC(=O)c3ccncc3)c2c1 [4f, 1-2′-methyl acridinyl-3-4′-pyridinamide thiourea] | 9.66 ± 1.54 | 34.4 ± 2.24 | 11.2 ± 0.96 | 53.7 ± 3.04 |  |  |  |  |  | 55.2 ± 1.36 | 60% ^b | 10% ^b | 80% ^b | 20% ^b | 15% ^b | 85% ^b | 100 | 10.1 ± 0.96 |  |  |
| O=c1[nH]cc(F)c(=O)[nH]1 [5-FU, 5-fluorouracil, reference compound] |  |  |  |  | 32 ± 1.23 | 34.5 ± 1.18 | 30.4 ± 2.87 | 44 ± 0.54 |  |  |  |  |  |  |  |  |  |  | 25.4 ± 1.27 | 40.1 ± 1.65 |

Further lines, with some results ahead:

| IC50 [2] [µM] | IC50 [5] [µM] | IC50 ([6]; MTT) [µM] | IC50 [7] [µM] | IC50 ([2]; Homo sapiens) [µM] | IC50 ([5]; Homo sapiens) [µM] | IC50 ([6]; Homo sapiens, MGC-803, MTT) [µM] | IC50 ([7]; Homo sapiens) [µM] | melting point [°C] | SMILES | IC50 [1] [µM] | MAR (malformation rate) ([3]; 1 mg/mL) | MOR (mortality rate) ([3]; 1 mg/mL) | MAR (malformation rate) ([3]; 1.5 mg/mL) | MOR (mortality rate) ([3]; 1.5 mg/mL) | MAR (malformation rate) ([3]; 2 mg/mL) | MOR (mortality rate) ([3]; 2 mg/mL) | total mortality and malformation rate [3] [%] | IC50 [4] [µM] | IC50 ([1]; Homo sapiens, Fibroblast) [µM] | IC50 ([4]; Homo sapiens) [µM] |
| --- | --- | --- | --- | --- | --- | --- | --- | --- | --- | --- | --- | --- | --- | --- | --- | --- | --- | --- | --- | --- |
| 13 ± 1.64 | 43.9 ± 2.59 | 35 ± 3.57 | 40.5 ± 4.52 |  |  |  |  |  | COc1ccc2nc3ccccc3c(NC(=S)NNC(=O)c3ccc([N+](=O)[O-])cc3)c2c1 [4d, 1-2’-methoxyl acridinyl-3-4′-nitro benzoyl thiosemicarbazides] | 65.3 ± 3.82 |  |  |  |  |  |  |  | 25.1 ± 1.33 |  |  |
| 25.8 ± 1.51 | 20.2 ± 4.13 | 13.5 ± 1.59 | 39 ± 2.05 |  |  |  |  |  | Cc1ccc2nc3ccccc3c(NC(=S)NNC(=O)c3ccccc3)c2c1 [4g, 1-2′-methyl acridinyl-3-benzoyl thiosemicarbazides] | 70.1 ± 3.97 |  |  |  |  |  |  |  | 14.3 ± 1.52 |  |  |
| 9.89 ± 1.45 | 23.3 ± 1.33 | 22.3 ± 1.35 | 60.4 ± 2.95 |  |  |  |  |  | Cc1ccc2nc3ccccc3c(NC(=S)NNC(=O)c3ccc([N+](=O)[O-])cc3)c2c1 [4i, 1-2′-methyl acridinyl-3-4’-nitro benzoyl thiosemicarbazides] | 60.7 ± 2.31 |  |  |  |  |  |  |  | 11.8 ± 1.38 |  |  |
| 19.9 ± 1.32 | 24.4 ± 3.53 | 16.4 ± 1.56 | 32.2 ± 2.36 |  |  |  |  |  | Cc1ccc2nc3ccccc3c(NC(=S)NNC(=O)c3ccc(Cl)cc3)c2c1 [4j, 1-2′-methyl acridinyl-3-4′-chloro benzoyl thiosemicarbazides] | 61.5 ± 1.85 |  |  |  |  |  |  |  | 20.5 ± 1.39 |  |  |
|  |  |  |  | 21.2 ± 2.72 | 22.1 ± 2.72 | 22.4 ± 1.32 | 36.5 ± 2.96 | 272 to 273 | COc1ccc2nc3ccccc3c(-n3c(-c4ccncc4)n[nH]c3=S)c2c1 [5a, 4-(2-methoxyacridin-9-yl)-5-(pyridin-4-yl)-2,4-dihydro-3H-1,2,4-triazole-3-thione] |  |  |  |  |  |  |  |  |  | 74.5 ± 4.03 | 42 ± 2.31 |
